Results as given in publication PMC10610016, “New Hybrid Compounds Incorporating Natural Products as Multifunctional Agents against Alzheimer’s Disease” (Pharmaceutics, 2023).
Where “and” joins values, the source holds several entries; their conditions need not be identical. Equal values may be shown once. Read-outs that look alike come from different tables or passages of the source. Values belong to the compound of their own block, whether it stands above or below them.

Experiments:
[1] = UV–Vis metal binding study, Cu2+ (mole ratio method); format: physicochemical; conditions: for stoichiometry for the Cu2+–ligand complex (molar fraction analysis): ligand 20 µM, Cu2+ 0 to 80 µM; for shift in UV spectrum in the presence of Cu2+ (first screening): ligand 20 μM, Cu2+ 80 µM, MeOH
Experimental: (§1) The synthesized compounds were tested for their metal chelating effect through spectroscopic measurements. The UV–Vis absorbance of compounds was recorded in the absence and presence of metal ions using a UV–Vis spectrometer (a SPECTROstarNano (220–1000 nm), Ortenberg, Germany. The experiment was performed in 96-well plates and each experiment was made in triplicates. A fixed amount of investigated ligand (20 μM) solubilized in MeOH was mixed with increasing concentration of Cu^2+ (CuCl2), Fe^2+ (FeSO4) and Zn^2+ (ZnCl2) from 0 to 80 μM and incubated for 30 min at room temperature (r.t.). The absorbance change was monitored at wavelengths ranging from 220 to 700 nm. The stoichiometry of studied compounds for Cu^2+ and Fe^2+ complexes was determined by employing the mole ratio method.

ABTS assay = format: biochemical; conditions: for radical scavenger / antioxidant activity, ABTS: compound 100 µM; for EC50 / TEAC, ABTS: mean ± SEM of three independent experiments
Experimental: The ABTS assay was performed according to the methods reported in literature. Briefly, 7 mM of ABTS was mixed with 2.45 mM of K2S2O8 solution, ratio 1:1, in 10 mM phosphate buffer (pH 7.4). The mixture was incubated in a dark box at r.t. for 12 h, then the stock solution was diluted until the absorbance was 0.70 ± 0.02 at 734 nm.
In a 96-well plate, 190 µL ABTS working solution and 10 µL sample solution (compounds 2a–c, 3a–c at concentration of 100 μM) were mixed and the absorbance was measured (734 nm) using a SPECTROstarNano (220–1000 nm) UV–Vis spectrophotometer, Ortenberg, Germany. Then, for compounds 2a–c the EC50 was calculated and the values were expressed in TEAC equivalents. Each concentration was tested in triplicate and the EC50 was reported as the mean ± SEM of three independent experiments.

Aβ1-40 = target: T1, Aβ1-40 (Homo sapiens, UniProt P05067); assay: Thioflavin T (ThT) fluorescence assay of Aβ1-40 fibril formation; format: biochemical; conditions: for inhibition of Aβ1-40 fibril formation (ThT): Aβ1-40 10 µM
T1 construct: Aβ1-40 was obtained from Bachem (Bubendorf, Switzerland); purchased Bachem (Bubendorf, Switzerland)
T1 sequence (P05067 672-711 limits assumed): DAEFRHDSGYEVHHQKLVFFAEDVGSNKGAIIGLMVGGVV
Experimental: Aβ1-40 was obtained from Bachem (Bubendorf, Switzerland). To remove preformed aggregates, it was dissolved during 15–20 min at r.t. in 1% NH4OH to give a concentration of 2 mg/mL, followed by immediate lyophilisation. The Aβ1-40 peptide was then dissolved in an aqueous 1% ammonia solution to a concentration of 1 mM and then, just prior to use, was diluted to 0.2 mM with 10 mM Tris-HCl, 100 mM NaCl buffer (pH 7.4). Compounds (2a–c) were dissolved in DMSO (4.9 mM), while TTR in phosphate buffer 20 mM buffer (pH 7.4) at 1 mM concentration. ThT fluorescence was measured to evaluate the development of Aβ1-40 fibrils over time using a fluorescence plate reader (Vantastar, BMG lab-tech, Ortenberg, Germany) with standard 96-well black microliter plates. The ThT fluorescence intensity was recorded by using excitation/emission settings at 440−15 nm/480−15nm for 21 h and applying a double orbital shaking of 10 s before the first cycle. Experiments were triggered by adding Aβ1-40 achieving a final concentration of 10 μM into a mixture containing 40 μM ThT in 10 mM Tris-HCl, 100 mM NaCl buffer (pH 7.4) with and without the studied compounds (10 μM) at 25 °C, and with and without CuCl2 (10 µM). When TTR was assessed in the presence of compound 2a, the ratio between TTR and 2a was adjusted to 1:2 (TTR:2a) in order to let the compound interacting with both hydrophobic pockets. A time of 3 h of incubation was employed before adding the solution into the well. The F reduction is depicted as the intensity of experimental fluorescence plateau observed with the studied compound relative to the value obtained without the compound and is quantified as the following percentage: ((F Aβ1-40+compound − F Aβ1-40)/(F Aβ1-40)) × 100. The data of fluorescence intensity come from at least two independent experiments, where each condition has been performed in duplicate, in the case of the presence of TTR (10 µM), or triplicate, in the case of the absence of TTR (10 µM), respectively. The values are given as averaged percentage ± SEM.

Human Plasma TTR = target: T2, Human Plasma TTR (Homo sapiens, UniProt P02766); assay: ANS competitive binding (displacement) assay; conditions: TTR 8 µM, ANS 16 µM
T2 construct: purchased Merck Millipore, Molsheim, France; host or cells: human plasma
Experimental: The binding of ANS (8-anilino-1-naphthalenesulfonic acid), Sigma-Aldrich (St. Louis, MO, USA) and its displacement by the three selected compounds 2a–c were studied using Human Plasma TTR (Merck Millipore, Molsheim, France) according to the protocol previously described. Briefly, TTR (8 µM) was incubated with ANS (16 µM) at r.t. for 15 min in 96-well plates. Then, compounds 2a–c at concentrations of 100 µM were added. After 10 min, the fluorescent emission spectra (400–540 nm) were recorded exciting at 280 nm using Molecular Devices SpectraMax Gemini XPS plate reader, (San Jose, CA, USA). For compounds 2a, the IC50 was calculated and value was expressed as the mean ± SEM of the triplicate. All experiments were made in triplicate and, the fluorescence increases of ANS bound to TTR solution compared to its control without TTR, and TTR alone, in phosphate buffer, were used as a control.

[2] = DPPH radical scavenging assay; format: biochemical; conditions: for %AA (percentage of antioxidant activity), DPPH: compound 100 µM, DPPH 60 µM in MeOH, 1 h; for EC50 / TEAC (Trolox equivalent antioxidant capacity), DPPH: mean ± SEM of three independent experiments
Experimental: The DPPH assay was carried out in a 96-microwell plate according to a previously described protocol. In brief, DPPH solution (60 µM in MeOH) was added to studied compounds or MeOH as the control. The 96-microwell plate was incubated (in the dark, at r.t. for 1 h) and the absorbance values were read at 517 nm by a SPECTROstarNano (220–1000 nm) UV–Vis spectrophotometer, Ortenberg, Germany. During the first screening, all compounds were tested ad 100 µM, then for compounds 2a–c the EC50 (effective concentration), the concentration of substrate that causes a 50% reduction in the DPPH colour, was calculated.
All experiments were made in triplicate. The percentage of the antioxidant activity (%AA) of the compounds was determined according to Equation (1):%AA = ((AbsDPPH − Abssample)/AbsDPPH) × 100(1)
AbsDPPH is the absorbance of DPPH solution, and Abssample is the absorbance of DPPH solution containing the tested compound.
Each concentration was tested in triplicate and the EC50 value was reported as the mean ± the standard error of the mean (SEM) of three independent experiments.

[3] = UV–Vis metal binding study, Fe2+ (mole ratio method); format: physicochemical
Experimental: as §1

[4] = Colorimetric Fe2+ chelation with ferrozine; format: physicochemical; conditions: FeSO4, ferrozine
Experimental: (§2) Due to a non-measurable UV absorbance for compounds 4a and 5c, a different protocol using pyrocatechol violet (PV) was applied. The compounds (200 µM) incubated for 10 min with CuSO4 (200 µM), after 200 µM PV was added and the plate was incubated at 25 °C for 20 min. The absorption spectra were recorded. The same protocol was used for Fe^2+ (FeSO4) in presence of ferrozine.

[5] = Colorimetric Cu2+ chelation with pyrocatechol violet (PV); format: physicochemical; conditions: compound 200 µM, CuSO4 200 µM, PV 200 µM
Experimental: as §2

[6] = set-up: method as in PMID 31055242; conditions: literature value; cited from earlier work
[7] = set-up: method as in PMID 31055242; conditions: literature value; cited from earlier work; remark: listed apart in the source

SMILES: O=C(C=Cc1ccccc1)NOCc1ccccc1C(F)(F)F [Compound 1a, N-((2-(trifluoromethyl)benzyl)oxy)cinnamamide]
- melting point: 91 to 93 °C
- stoichiometry for the Cu2+–ligand complex (molar fraction analysis) [1]: 1.0
- shift in UV spectrum in the presence of Cu2+ (first screening) [1]: significant shift

SMILES: O=C(C=Cc1ccccc1)NOCc1cccc(C(F)(F)F)c1 [Compound 1b, N-((3-(trifluoromethyl)benzyl)oxy)cinnamamide]
- melting point: 91 to 93 °C

SMILES: O=C(C=Cc1ccccc1)NOCc1ccc(C(F)(F)F)cc1 [Compound 1c, N-((4(trifluoromethyl)benzyl)oxy)cinnamamide]
- melting point: 148 to 150 °C

SMILES: O=C(/C=C/c1ccc(O)c(O)c1)NOCc1ccccc1C(F)(F)F [Compound 2a, (E)-3-(3,4-dihydroxyphenyl)-N-((2-(trifluoromethyl)benzyl)oxy)acrylamide]
- radical scavenger / antioxidant activity, ABTS (ABTS assay): 99.1%
- EC50 (ABTS assay): 9.9 ± 0.2 µM
- TEAC, ABTS (ABTS assay): 11.3 ± 0.1 µM
- effect on Aβ1-40 fibril formation (ThT) (Aβ1-40; TTR 10 µM pre-incubated with 2a 20 µM (1:2 TTR/2a), without Cu2+): slight positive effect
- inhibition of Aβ1-40 fibril formation (ThT) (Aβ1-40; with Cu2+ 10 µM, compound 10 µM): completely inhibition of the fibril formation
- inhibition of Aβ1-40 fibril formation (ThT) (Aβ1-40; without Cu2+, compound 10 µM (1:1 ratio)): discrete inhibitory activity
- IC50 (Human Plasma TTR; mean ± SEM of triplicate): 31.9 µM
- displacement of ANS from TTR (Human Plasma TTR; compound 100 µM): 71%
- %AA (percentage of antioxidant activity), DPPH [2]: 95%
- EC50 [2]: 8.9 ± 0.2 µM
- TEAC (Trolox equivalent antioxidant capacity), DPPH [2]: 12.4 ± 0.4 µM
- melting point: 80 to 82 °C
- molar fraction of the 2a–Fe2+ complex ([3]; Fe2+ 0 to 30 µM, absorbance changes at 330 nm): 1
- change in UV spectrum when Fe2+ was added (first screening) ([3]; ligand 20 μM, Fe2+ 80 µM, MeOH): weak change
- shift in UV spectrum in the presence of Cu2+ (first screening) [1]: significant shift

SMILES: O=C(/C=C/c1ccc(O)c(O)c1)NOCc1ccc(C(F)(F)F)cc1 [Compound 2c]
- radical scavenger / antioxidant activity, ABTS (ABTS assay): 97.3%
- EC50 (ABTS assay): 22.9 ± 0.5 µM
- TEAC, ABTS (ABTS assay): 11.8 ± 0.02 µM
- %AA (percentage of antioxidant activity), DPPH [2]: 96% and 58%
- EC50 [2]: 6 ± 0.1 µM
- TEAC (Trolox equivalent antioxidant capacity), DPPH [2]: 10.4 ± 0.4 µM
- melting point: 188 to 190 °C

SMILES: O=C(/C=C/c1ccc(O)cc1O)NOCc1ccccc1C(F)(F)F [Compound 3a, (E)-3-(2,4-dihydroxyphenyl)-N-((2-(trifluoromethyl)benzyl)oxy)acrylamide]
- radical scavenger / antioxidant activity, ABTS (ABTS assay): 68%
- %AA (percentage of antioxidant activity), DPPH [2]: 59%
- melting point: 165 to 167 °C
- stoichiometry for the Cu2+–ligand complex (molar fraction analysis) [1]: around 2
- shift in UV spectrum in the presence of Cu2+ (first screening) [1]: significant shift

SMILES: O=C(/C=C/c1ccc(O)cc1O)NOCc1cccc(C(F)(F)F)c1 [Compound 3b, (E)-3-(2,4-dihydroxyphenyl)-N-((3-(trifluoromethyl)benzyl)oxy)acrylamide]
- radical scavenger / antioxidant activity, ABTS (ABTS assay): 67%
- %AA (percentage of antioxidant activity), DPPH [2]: 60%
- melting point: 157 to 158 °C

SMILES: O=C(/C=C/c1ccc(O)cc1O)NOCc1ccc(C(F)(F)F)cc1 [Compound 3c, (E)-3-(2,4-dihydroxyphenyl)-N-((4-(trifluoromethyl)benzyl)oxy)acrylamide]
- radical scavenger / antioxidant activity, ABTS (ABTS assay): 65%
- melting point: 176 to 178 °C

SMILES: O=C(CCCC[C@@H]1CCSS1)NOCc1ccccc1C(F)(F)F [Compound 5a, (R)-5-(1,2-dithiolan-3-yl)-N-((2-(trifluoromethyl)benzyl)oxy)pentanamide]
- interaction with Fe2+, colorimetric method with ferrozine [4]: No interaction
- interaction with Cu2+, colorimetric method with PV [5]: slight shift

SMILES: O=C(O)/C=C/c1ccc(O)c(O)c1 [caffeic acid]
- EC50 [6]: 13.3 µM
- EC50 [7]: 10.9 µM

Now from value to compound, other results behind:

- melting point: 73 to 75 °C
SMILES: CCCC(CCC)C(=O)NOCc1ccccc1C(F)(F)F [Compound 4a, 2-propyl-N-((2-(trifluoromethyl)benzyl)oxy)pentanamide]
- interaction with Fe2+, colorimetric method with ferrozine [4]: No interaction
- interaction with Cu2+, colorimetric method with PV [5]: slight shift

- melting point: 74 to 76 °C
SMILES: CCCC(CCC)C(=O)NOCc1cccc(C(F)(F)F)c1 [Compound 4b, 2-propyl-N-((3-(trifluoromethyl)benzyl)oxy)pentanamide]

- melting point: 78 to 80 °C
SMILES: CCCC(CCC)C(=O)NOCc1ccc(C(F)(F)F)cc1 [Compound 4c, 2-propyl-N-((4-(trifluoromethyl)benzyl)oxy)pentanamide]
